Four molecules from patent publication US20160186067A1, “METHODS AND SYSTEMS FOR […]” (SHELL OIL COMPANY, priority 2014, published 2016) can be followed below.

The nature of this data set: Partitioning of reaction intermediates and solvents between upper toluene-rich and lower aqueous phases (toluene extraction). The settings on record: for Kow UL/LL (partition coefficients for toluene extraction): upper toluene-rich layer / lower aqueous-rich layer, toluene added to reactor product of wood digestion, stirred at 150° C. for 2 hours, then cooled and decanted; for Phase preference in toluene extraction: upper organic vs lower aqueous phase, Example 2. How it is done:
The injector temperature was set at 250° C., and the detector temperature was set at 300° C. A range of alkanes, ketone and aldehyde monooxygenates as well as residual glycol intermediates including ethylene glycol (EG), 1,2-propylene glycol (PG) and glycerol were observed, along with phenolic components from the initial charge of solvent, and those formed in reaction.
Reaction cycles entailed 1 hour at 160° C., followed by 1 hour at 190° C., followed by 3 hours at 240° C. Six cycles of wood addition were effected, followed by heating overnight at 270° C. under 52 bar of H2 to complete the conversion of intermediates.
Stirring was then stopped, and the reactor was allowed to cool. […] Catalyst was left on the reactor bottom.

In the case of `OCCO` [EG, ethylene glycol], the “Kow UL/LL (partition coefficients for toluene extraction)” value (shortened to “Kow UL/LL”) was 0.42.
`Cc1cccc(C)c1O` [xylenol, 2,6-xylenol]: the “Phase preference in toluene extraction” value is “highly favored the upper organic-rich phase” and the “Kow UL/LL” value amounted to 51.79.
The like results for `CCCc1ccc(O)c(OC)c1` [MPP, 2-methoxy-4-propylphenol] were, in that order, “highly favored the upper organic-rich phase” and 33.59.
Turning to `CC(O)CO` (stereo not drawn) [PG, 1,2-propylene glycol], the “Kow UL/LL” value was found to be 5.09.
